One may read the IC50 as the concentration that inhibits the measured activity by half.

From PMC4993765, “Shikonin Inhibits Intestinal Calcium-Activated Chloride Channels and Prevents Rotaviral Diarrhea” (Frontiers in Pharmacology, 2016) come the findings set out here.

Each structure is given as a SMILES string.

The target in the assay is T1, TMEM16A (Homo sapiens, UniProt Q5XXA6).
T1 construct: gene ANO1
T1 sequence (Q5XXA6 1-986): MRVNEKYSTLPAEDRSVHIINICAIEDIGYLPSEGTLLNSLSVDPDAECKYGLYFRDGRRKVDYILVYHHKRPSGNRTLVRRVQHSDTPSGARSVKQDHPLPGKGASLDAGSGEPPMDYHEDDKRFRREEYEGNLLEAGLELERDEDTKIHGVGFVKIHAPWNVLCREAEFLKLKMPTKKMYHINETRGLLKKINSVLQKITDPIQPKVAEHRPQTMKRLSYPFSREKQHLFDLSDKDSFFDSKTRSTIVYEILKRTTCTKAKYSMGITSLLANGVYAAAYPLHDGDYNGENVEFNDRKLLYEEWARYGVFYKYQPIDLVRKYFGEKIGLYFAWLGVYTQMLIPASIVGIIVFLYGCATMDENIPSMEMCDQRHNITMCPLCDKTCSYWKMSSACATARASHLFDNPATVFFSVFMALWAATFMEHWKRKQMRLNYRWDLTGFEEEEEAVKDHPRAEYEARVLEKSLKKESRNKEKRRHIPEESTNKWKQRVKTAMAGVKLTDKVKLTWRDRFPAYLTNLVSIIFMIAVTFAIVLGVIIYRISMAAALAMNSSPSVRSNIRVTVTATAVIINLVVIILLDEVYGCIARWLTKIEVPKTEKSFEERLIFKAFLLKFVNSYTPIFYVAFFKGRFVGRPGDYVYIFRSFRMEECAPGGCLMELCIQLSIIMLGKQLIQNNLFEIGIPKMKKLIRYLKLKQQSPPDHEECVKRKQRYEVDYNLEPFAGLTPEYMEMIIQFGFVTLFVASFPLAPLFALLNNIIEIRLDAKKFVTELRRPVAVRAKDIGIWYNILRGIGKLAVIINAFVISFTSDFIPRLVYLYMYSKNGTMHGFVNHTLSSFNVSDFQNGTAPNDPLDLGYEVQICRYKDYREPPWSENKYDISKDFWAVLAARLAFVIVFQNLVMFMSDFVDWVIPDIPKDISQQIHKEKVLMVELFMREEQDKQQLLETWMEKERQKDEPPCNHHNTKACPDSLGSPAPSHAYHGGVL
The experiment in a line: short-circuit current (Eact-induced Cl- current) in basolaterally permeabilized FRT cells expressing TMEM16A; also YFP fluorescence quenching. The assay is classed as cell-based.

The compound `CC(C)=CC[C@@H](O)C1=CC(=O)c2c(O)ccc(O)c2C1=O` [shikonin] yielded an IC50 of 1.5 µM.
